The record followed here is patent US20230190797A1, “COMPOSITIONS AND METHODS FOR ADOPTIVE CELL THERAPY” (MEMORIAL SLOAN KETTERING CANCER CENTER, priority 2017, published 2023).

A short description of data set [1]: Cell permeability in CACO-2 cells. In kind it is in vitro ADME. To be noted: human, read-out: Efflux Ratio (B-A/A-B). In general terms: Caco-2 monolayers are a common model of the intestinal barrier.
The conditions of data set [2]: mouse, in vivo.
A short description of the next data set: in vivo. To be noted: NOD, mouse.
Data set [3] deals with HEK293T cells expressing CPG2 variants. Nature of the data set: Viability of HEK293T cells expressing CPG2 variants exposed to prodrug. The data set is classed as cell-based, human. As to the method: FIG. 9 provides exemplary data showing that that cell-secreted and transmembrane CPG2 expressed in stably transfected cells activates an AIS prodrug. Expression of CPG2 without a signal peptide (CPG2nosigp) was employed as a control. 293t cells stably transfected with CPG2 variants were exposed to P-AMS (1 μM) for 48 hours and analyzed by bright field microscopy (FIG. 9A). Cells were exposed to varying concentrations of P-AMS and cell viability was analyzed at 48 hr post treatment (FIG. 9B).
Expression of CPG2 without a signal peptide (CPG2nosigp) was employed as a control. HEK293t cells stably transfected with CPG2 variants were exposed to P-AMS (1 μM) for 48 hours and analyzed by bright field microscopy (FIG. 9A). Cells were exposed to varying concentrations of P-AMS and cell viability was analyzed at 48 hr post treatment (FIG. 9B).

The subject of data set [4] is endogenous glutamate carboxypeptidase expressed in human prostate cells. Nature of the data set: Prodrug stability towards endogenous glutamate carboxypeptidase, LNCap viability. In kind it is cell-based. The source says:
This prodrug/drug combination was chosen for further development of the SEAKER systems.

A further data set concerns HEK293T (kidney). Nature of the data set: CellTitre Glo in vitro cytotoxicity, HEK293T. In kind it is cell-based, human. The following applies: prodrug versus AMS.
In another data set the test system is primary T-cells. Nature of the data set: CellTitre Glo in vitro cytotoxicity, primary T cells. The following applies: prodrug versus AMS. The data set is classed as cell-based.
For data set [5], the system named is myeloid leukemia cell line SET2. Nature of the data set: Cytotoxicity, SET2. In kind it is cell-based. The following applies: Set2, prodrug versus AMS.
Another data set has as its system SET2 cells. The data set is described as follows: SET2 viability with prodrug plus enzyme or enzyme-containing supernatant. In kind it is cell-based. To be noted: increasing prodrug. As to the method: Recombinant CPG2 protein was initially synthesized, purified (FIGS. 18A and 18B), and incubated with increasing concentrations of prodrug in a glutamate release assay (FIG. 17C). Mass spectrometry was used to determine that the glutamate moiety was released from all of the glutamate prodrugs.
Cell viability was measured by CellTitre-Glo® luminescence assay.
To determine to respective enzyme output of the Beta-lactamase constructs relative to the previous CPG2 constructs, a quantitative sandwich ELISA was used to determine the concentration (ng/mL) of purified recombinant CPG2, and a quantitative nitrocefin assay was used to determine the concentration (ng/mL) of purified recombinant Beta-lactamase (FIG. 25A). Cell viability was measured by CellTitre-Glo® luminescence in the presence of prodrug (glut-AMS or ceph-AMS) and varying concentrations of purified recombinant CPG2 or Beta-lactamase (FIG. 25B).

Where two headings read alike, the source gives them in different places. A value given as a limit tells only on which side of the number the result lay.

Turning to `CN(C)C(=O)C(CCN1CCC(O)(c2ccc(Cl)cc2)CC1)(c1ccccc1)c1ccccc1` [Loperamide], the efflux ratio in [1] (Caco-2, with Ver (concentration not stated), + Ver) was 0.7; in data set [1] (Caco-2, without Ver), 7.7.
What is called half-life is how long it takes for the measured level to halve. Low readings indicate rapid decline, high ones slow decline. Take `NS(=O)(=O)OC[C@H]1O[C@@H](n2cnc3c(NC(=O)N[C@@H](CCC(=O)O)C(=O)O)ncnc32)[C@H](O)[C@@H]1O` [P-AMS, ((9-((2R,3R,4S,5R)-3,4-dihydroxy-5-((sulfamoyloxy)methyl)tetrahydrofuran-2-yl)-9H-purin-6-yl)carbamoyl)-L-glutamic acid]: the toxicity in mice result in data set [2] is on record as “non-toxic”. This molecule also gave a half-life in the data set “in vivo” of 30 to 40 min. Also, the “activation of prodrug by cells expressing CPG intracellularly” value in data set [3] (HEK293T cells expressing CPG intracellularly) is on record as “not activated”. In data set [3] (stably transfected HEK293T, cell-secreted and transmembrane CPG2, 48 hr, no-signal-peptide control did not), the “cell death of cells expressing secreted or transmembrane CPG2” value is recorded as “significant cell death”. Further, the “stability in presence of endogenous glutamate carboxypeptidase” value in [4] is “remained stable”.
Regarding `Nc1ncnc2c1ncn2[C@@H]1O[C@H](COS(=O)(=O)NCC2=C(C(=O)O)N3C(=O)[C@@H](NC(=O)Cc4cccs4)[C@H]3SC2)[C@@H](O)[C@H]1O` [ceph-AMS], in the data set on HEK293T (kidney), the “Selective Index, HEK293t” value is listed as approximately 3. Moreover, the “Selective Index, Human T cell” value with primary T-cells is on record as more than 6. Besides, in [5], the “Selective Index, Set2” value was approximately 64. In addition, the “SET2 cell viability with Beta-lactamase supernatant” value with SET2 cells was “significant decrease in cell viability”.
